The text below walks through data of patent US20260274807A1 (University of Health Sciences and Pharmacy in St. Louis, priority 2023, published 2026).

By pEC50 is commonly meant the EC50 on a negative log10 scale, so that one unit is a factor of ten.

The structures appear in SMILES notation. pEC50: −log10 of the molar value. A value given as a limit tells only on which side of the number the result lay.

Experiment [1] deals with T1, ERRγ (Homo sapiens, UniProt P62508).
T1 construct: expressed in transfected cells; host or cells: HEK293
T1 sequence (P62508 1-458): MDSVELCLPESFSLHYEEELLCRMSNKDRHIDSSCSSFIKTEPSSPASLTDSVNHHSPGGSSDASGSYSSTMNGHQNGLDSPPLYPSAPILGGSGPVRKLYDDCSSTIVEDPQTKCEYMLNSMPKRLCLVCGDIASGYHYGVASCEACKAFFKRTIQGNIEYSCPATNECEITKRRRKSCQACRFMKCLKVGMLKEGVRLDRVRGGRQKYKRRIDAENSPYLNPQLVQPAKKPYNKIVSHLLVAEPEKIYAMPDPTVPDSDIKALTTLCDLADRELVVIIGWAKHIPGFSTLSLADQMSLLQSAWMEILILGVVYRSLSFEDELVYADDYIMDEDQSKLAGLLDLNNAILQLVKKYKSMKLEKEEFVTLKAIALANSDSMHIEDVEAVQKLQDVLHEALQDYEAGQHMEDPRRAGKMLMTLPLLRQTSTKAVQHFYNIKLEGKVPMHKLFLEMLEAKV
Put plainly: ERRE luciferase reporter assay in HEK293 cells transfected with pcDNA3.1 ERRγ. It counts as cell-based. Also noted: key to EC50 (ERRγ) μM: * <1 μM; ** 1-5 μM; *** >5 μM; i.a. (inactive). Conditions: HEK293 cells transfected with ERRE reporter construct and pcDNA3.1 ERRγ; compound for 24 hours; luciferase activity. On the procedure:
(§1) HEK293 cells were maintained in Dulbecco's modified Eagles medium (DMEM) supplemented with 10% fetal bovine serum at 37° C. under […]. […] Cells were transfected with ERRE reporter construct and pcDNA3.1 ERRα or ERRγ. Twenty-four-hours post-transfection, the cells were treated with vehicle or compound (various concentrations) for 24 hours (4 wells per dose). Luciferase activity was measured using the One-Glo Tox luciferase reporter assay system (Promega) and EC50s were calculated using GraphPad Prism software.
(Reporter assays use an easily measured gene product as a stand-in for the process of interest.)

For experiment [2], the target named is T2, ERRα (Homo sapiens, UniProt P11474).
T2 construct: expressed in transfected cells; host or cells: HEK293
T2 sequence (P11474 1-423): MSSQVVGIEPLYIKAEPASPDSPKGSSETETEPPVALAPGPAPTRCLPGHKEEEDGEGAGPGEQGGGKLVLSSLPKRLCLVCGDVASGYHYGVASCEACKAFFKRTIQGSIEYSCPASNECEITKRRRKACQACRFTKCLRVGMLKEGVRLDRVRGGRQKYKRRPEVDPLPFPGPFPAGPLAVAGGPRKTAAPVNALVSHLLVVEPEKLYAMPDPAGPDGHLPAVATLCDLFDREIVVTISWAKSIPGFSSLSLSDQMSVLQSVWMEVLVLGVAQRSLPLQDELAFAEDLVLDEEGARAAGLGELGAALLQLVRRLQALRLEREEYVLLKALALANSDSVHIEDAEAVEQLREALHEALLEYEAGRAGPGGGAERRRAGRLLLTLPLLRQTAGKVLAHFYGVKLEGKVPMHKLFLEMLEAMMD
Put plainly: ERRE luciferase reporter assay in HEK293 cells transfected with pcDNA3.1 ERRα. Also noted: key to EC50 (ERRα) μM: * <1 μM; ** 1-5 μM; *** >5 μM; i.a. (inactive). It counts as cell-based. Conditions: HEK293 cells transfected with ERRE reporter construct and pcDNA3.1 ERRα; compound for 24 hours; luciferase activity. On the procedure: as §1

As to `COc1ccc(-c2nnc(-c3cccc(C(F)(F)F)c3)o2)cc1`, the pEC50 in experiment [1] is under 5.30; in experiment [2], 5.30 to 6.00.

As for `c1ccc(-c2nnc(-c3ccccc3)o2)cc1` [Entry 1], the pEC50 in experiment [1] and in experiment [2] was over 6.00 throughout.

In the case of `Clc1ccc(-c2nnc(-c3ccccc3)o2)cc1` [Entry 2], the pEC50 in experiment [1] and in experiment [2] was over 6.00 throughout.

For `c1ccc(-c2nnc(-c3cccs3)o2)cc1` [Entry 3], the pEC50 in experiment [1] and in experiment [2] was over 6.00 throughout.

Consider `Cc1ccc(-c2nnc(-c3ccccc3)o2)cc1` [Entry 4, 2-phenyl-5-(p-tolyl)-1,3,4-oxadiazole], for which the pEC50 in experiment [1] and in experiment [2] was over 6.00 in each case.

With `COc1ccc(-c2nnc(-c3ccc(Br)cc3)o2)cc1` [Entry 5], the pEC50 in experiment [1] and in experiment [2] was over 6.00 in each case.

As for `Clc1ccc(-c2nnc(-c3ccc(Cl)cc3)o2)cc1` [Entry 6], the pEC50 in experiment [1] and in experiment [2] was over 6.00 each time.

Consider `O=[N+]([O-])c1ccc(-c2nnc(-c3ccccc3)o2)cc1` [Entry 7, 2-(4-nitrophenyl)-5-phenyl-1,3,4-oxadiazole], for which the pEC50 in experiment [1] and in experiment [2] was over 6.00 throughout.

Consider `Cc1ccccc1-c1nnc(-c2ccccc2)o1` [Entry 8], for which the pEC50 in experiment [1] and in experiment [2] was over 6.00 throughout.

For the molecule `Brc1ccc(-c2nnc(-c3ccccc3)o2)cc1` [Entry 9], the pEC50 in experiment [1] and in experiment [2] was over 6.00 in each case.

Take `O=[N+]([O-])c1ccc(-c2nnc(-c3ccccc3[N+](=O)[O-])o2)cc1` [Entry 11, 2-(2-nitrophenyl)-5-(4-nitrophenyl)-1,3,4-oxadiazole]: the negative-log EC50 (pEC50) in experiment [1] and in experiment [2] was 5.30 to 6.00 in each case.

With `O=[N+]([O-])c1ccc(-c2nnc(-c3cccc([N+](=O)[O-])c3)o2)cc1` [Entry 12, 2-(3-nitrophenyl)-5-(4-nitrophenyl)-1,3,4-oxadiazole], the pEC50 in experiment [1] and in experiment [2] was 5.30 to 6.00 throughout.

As to `O=[N+]([O-])c1ccc(-c2nnc(-c3ccc([N+](=O)[O-])cc3)o2)cc1` [Entry 13, 2,5-bis(4-nitrophenyl)-1,3,4-oxadiazole], the pEC50 in experiment [1] and in experiment [2] was 5.30 to 6.00 in each case.

Take `c1ccc(-c2nnc(-c3ccc4ccccc4n3)o2)cc1` [Entry 14, 2-phenyl-5-(quinolin-2-yl)-1,3,4-oxadiazole]: the pEC50 in experiment [1] and in experiment [2] was under 5.30 each time.

Turning to `c1ccc(-c2nnc(-c3ccnc4ccccc34)o2)cc1` [Entry 15, 2-phenyl-5-(quinolin-4-yl)-1,3,4-oxadiazole], the “EC50 (ERRγ) μM” value in experiment [1] is recorded as “i.a”. Besides, the “EC50 (ERRα) μM” value in experiment [2] is “i.a”.

For `O=[N+]([O-])c1ccccc1Cc1nnc(-c2ccc(C(F)(F)F)cc2)o1` [Entry 16, 2-(2-nitrobenzyl)-5-(4-(trifluoromethyl)phenyl)-1,3,4-oxadiazole], the pEC50 in experiment [1] and in experiment [2] was over 6.00 each time.

Consider `COc1ccc(-c2nnc(-c3ccco3)o2)cc1` [Entry 18, 2-(furan-2-yl)-5-(4-methoxyphenyl)-1,3,4-oxadiazole], for which the negative logarithm of the EC50 (pEC50) in experiment [1] and in experiment [2] was over 6.00 throughout.

Turning to `COc1ccc(-c2nnc(-c3ccc(C)o3)o2)cc1` [Entry 19, 2-(4-methoxyphenyl)-5-(5-methylfuran-2-yl)-1,3,4-oxadiazole], the pEC50 in experiment [1] and in experiment [2] was over 6.00 throughout.

Regarding `COc1ccc(-c2nnc(-c3cccs3)o2)cc1` [Entry 20, 2-(4-methoxyphenyl)-5-(thiophen-2-yl)-1,3,4-oxadiazole], the pEC50 in experiment [1] and in experiment [2] was over 6.00 throughout.

With `COc1ccc(-c2nnc(-c3ccc(N(C)C)cc3)o2)cc1` [Entry 21, 4-(5-(4-methoxyphenyl)-1,3,4-oxadiazol-2-yl)-N,N-dimethylaniline], the pEC50 in experiment [1] and in experiment [2] was 5.30 to 6.00 throughout.

For `COc1ccc(-c2nnc(-c3ccnc4ccccc34)o2)cc1` [Entry 22, 2-(4-methoxyphenyl)-5-(quinolin-4-yl)-1,3,4-oxadiazole], the pEC50 in experiment [1] and in experiment [2] was over 6.00 throughout.

In the case of `COc1ccc(-c2nnc(-c3ccc4ccccc4n3)o2)cc1` [Entry 23, 2-(4-methoxyphenyl)-5-(quinolin-2-yl)-1,3,4-oxadiazole], the pEC50 in experiment [1] and in experiment [2] was over 6.00 each time.

With `COc1ccc(-c2nnc(-c3ccccn3)o2)cc1` [Entry 24, 2-(4-methoxyphenyl)-5-(pyridin-2-yl)-1,3,4-oxadiazole], in experiment [1], the “EC50 (ERRγ) μM” value is listed as “i.a”. In addition, in experiment [2], the “EC50 (ERRα) μM” value is reported as “i.a”.

`COc1ccc(-c2nnc(-c3cccc([N+](=O)[O-])c3)o2)cc1` [Entry 26, 2-(4-methoxyphenyl)-5-(3-nitrophenyl)-1,3,4-oxadiazole]: the figures for the pEC50 in experiment [1] and in experiment [2] were over 6.00 and 5.30 to 6.00, respectively.

For the molecule `COc1ccc(-c2nnc(-c3ccccc3Cl)o2)cc1` [Entry 28, 2-(2-chlorophenyl)-5-(4-methoxyphenyl)-1,3,4-oxadiazole], the pEC50 in experiment [1] and in experiment [2] was over 6.00 each time.

`COc1ccc(-c2nnc(-c3cccc(OC)c3)o2)cc1` [Entry 29, 2-(3-methoxyphenyl)-5-(4-methoxyphenyl)-1,3,4-oxadiazole]: the pEC50 in experiment [1] and in experiment [2] was over 6.00 throughout.

For `COc1ccc(-c2nnc(-c3ccc(OC)cc3)o2)cc1` [Entry 30, 2,5-bis(4-methoxyphenyl)-1,3,4-oxadiazole], the negative logarithm of the EC50 (pEC50) in experiment [1] and in experiment [2] was over 6.00 in each case.

Turning to `Cc1ccc(-c2nnc(-c3ccco3)o2)cc1` [Entry 31, 2-(furan-2-yl)-5-(p-tolyl)-1,3,4-oxadiazole], the pEC50 in experiment [1] and in experiment [2] was over 6.00 throughout.

On to `Cc1ccc(-c2nnc(-c3ccc(C)o3)o2)cc1` [Entry 32, 2-(5-methylfuran-2-yl)-5-(p-tolyl)-1,3,4-oxadiazole], for which the pEC50 in experiment [1] and in experiment [2] was over 6.00 in each case.

As to `Cc1ccc(-c2nnc(-c3cccs3)o2)cc1` [Entry 33, 2-(thiophen-2-yl)-5-(p-tolyl)-1,3,4-oxadiazole], the pEC50 in experiment [1] and in experiment [2] was over 6.00 throughout.

As for `Cc1ccc(-c2nnc(-c3ccnc4ccccc34)o2)cc1` [Entry 34, 2-(quinolin-4-yl)-5-(p-tolyl)-1,3,4-oxadiazole], the pEC50 in experiment [1] and in experiment [2] was over 6.00 throughout.

For `Cc1ccc(-c2nnc(-c3ccccn3)o2)cc1` [Entry 36, 2-(pyridin-2-yl)-5-(p-tolyl)-1,3,4-oxadiazole], the pEC50 in experiment [1] and in experiment [2] was over 6.00 throughout.

Turning to `Cc1ccc(-c2nnc(-c3ccccc3[N+](=O)[O-])o2)cc1` [Entry 37, 2-(2-nitrophenyl)-5-(p-tolyl)-1,3,4-oxadiazole], the negative-log EC50 (pEC50) in experiment [1] and in experiment [2] was over 6.00 in each case.

In the case of `Cc1ccc(-c2nnc(-c3cccc([N+](=O)[O-])c3)o2)cc1` [Entry 38, 2-(3-nitrophenyl)-5-(p-tolyl)-1,3,4-oxadiazole], the pEC50 in experiment [1] and in experiment [2] was over 6.00 throughout.

`O=[N+]([O-])c1ccc(-c2nnc(-c3cccc(C(F)(F)F)c3)o2)cc1` [Entry 64, 2-(4-nitrophenyl)-5-(3-(trifluoromethyl)phenyl)-1,3,4-oxadiazole]: the pEC50 in experiment [1] was under 5.30.
